# Laboratory results taken from patent US20250235462A1, “NOVEL CAPSID ASSEMBLY INHIBITORS” (AM SCIENCES INC, priority 2021, published 2025).
# Values joined by “and” are separate entries in the source; they are usually repeats but may differ in a detail not shown here. Equal entries are not always repeated. Where two headings read alike, the source gives them in different places.
# What was measured:
# [1] = target: Protein (capsid assembly) (Hepatitis B virus genotype D subtype ayw, UniProt P03146); test: Protein inhibition (capsid assembly inhibition), Table 1; assay type: biochemical; conditions: for EC50: NVR value of the same run in brackets, read-out: Protein EC50
# Chain of Protein (capsid assembly) (P03146 whole entry): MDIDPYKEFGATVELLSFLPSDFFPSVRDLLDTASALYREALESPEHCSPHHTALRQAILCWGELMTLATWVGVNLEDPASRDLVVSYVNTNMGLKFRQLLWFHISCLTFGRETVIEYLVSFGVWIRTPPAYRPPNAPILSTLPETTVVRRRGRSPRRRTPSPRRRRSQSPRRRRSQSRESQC
# intracellular HBV DNA = test: Real-time PCR for intracellular HBV DNA in HepAD38 cells; assay type: cell-based, hepatitis B virus (HBV); conditions: treated for 65 hours, intracellular HBV DNA by real-time PCR
# Protocol: HepAD38 cells were cultured in DMEM medium (Welgene) supplemented with 200 unit/mL penicillin, 200 μg/mL streptomycin, and 10% FBS. During maintenance and passage, the cells were cultured together with 0.4 μg/mL tetracycline. Two days before the treatment with compounds for inducing HBV replication was started, the medium was replaced with a tetracycline-free complete growth medium. […]
# HepAD38 cells were treated with a compound for 65 hours and then recovered, and intracellular HBV DNA was extracted therefrom according to the protocol in the DNeasy Blood & Tissue Kit (Qiagen). The primers and probes used to quantify HBV DNA were 5′-[…]-3′, 5′-[…]-3′, and 5′-/56-FAM/TGT CCT GGT/ZEN/[…]/3IABKFQ/-3′. The HBV DNA was amplified by real-time PCR assay using LightCycler 480 (Roche) (J. Virol., 2018, 92(16):e00339-18). All of the processes were confirmed in duplicate.
# [2] = @30 μM, read-out: Protein % inhibition rate (@30 μM)
# [3] = Hepatitis B virus, HePAD38, 65 h
SMILES,"inhibition at 30 µM [1, 2] [%]",IC50 (intracellular HBV DNA; [3]) [µM],EC50 [1],"inhibition at 30 µM ([1]; read-out: Protein % inhibition rate (@30 μM), @30 μM) [%]",IC50 (intracellular HBV DNA; read-out: IC50) [µM]
"O=C(Nc1ccccc1Cl)N(Cc1nnc2n1CCCCC2)c1ccc2c(c1)OCO2 [Example 5, 1-(Benzo[d][1,3]dioxol-5-yl)-3-(2-chlorophenyl)-1-((6,7,8,9-tetrahydro-5H-[1,2,4]triazolo[4,3-a]azepin-3-yl)methyl)urea]",9,> 3.3,,,
"O=C(Nc1ccc(F)c(Cl)c1)N(Cc1nnc2n1CCCCC2)C1CCCC1 [Example 6, 3-(3-Chloro-4-fluorophenyl)-1-cyclopentyl-1-((6,7,8,9-tetrahydro-5H-[1,2,4]triazolo[4,3-a]azepin-3-yl)methyl)urea]",77,1.57,1.2 µM,,
"COc1ccc(N(Cc2nnc3n2CCCCC3)C(=O)N(C)c2ccc(F)c(Cl)c2)cc1 [Example 9, 1-(3-Chloro-4-fluorophenyl)-3-(4-methoxyphenyl)-1-methyl-3-((6,7,8,9-tetrahydro-5H-[1,2,4]triazolo[4,3-a]azepin-3-yl)methyl)urea]",5,0.75,,,
"O=C(Nc1ccc(F)c(Cl)c1)N(Cc1nnc2n1CCCCC2)c1ccc2cc[nH]c2c1 [Example 10, 3-(3-Chloro-4-fluorophenyl)-1-(1H-indol-6-yl)-1-((6,7,8,9-tetrahydro-5H-[1,2,4]triazolo[4,3-a]azepin-3-yl)methyl)urea]",85,> 3.3,,,
"O=C(NC1CCCC1)N(Cc1nnc2n1CCCCC2)c1ccc2c(c1)OCO2 [Example 11, 1-(Benzo[d][1,3]dioxol-5-yl)-3-cyclopentyl-1-((6,7,8,9-tetrahydro-5H-[1,2,4]triazolo[4,3-a]azepin-3-yl)methyl)urea]",4,> 3.3,,,
"CNc1ccc(N(Cc2nnc3n2CCCCC3)C(=O)Nc2ccc(F)c(Cl)c2)cc1 [Example 14, 3-(3-Chloro-4-fluorophenyl)-1-(4-(methylamino)phenyl)-1-((6,7,8,9-tetrahydro-5H-[1,2,4]triazolo[4,3-a]azepin-3-yl)methyl)urea]",92,> 0.55,2.8 µM,,
"COc1ccc(N(Cc2nnc(C)n2C)C(=O)Nc2ccc(F)c(Cl)c2)cc1 [Example 15, 3-(3-Chloro-4-fluorophenyl)-1-((4,5-dimethyl-4H-1,2,4-triazol-3-yl)methyl)-1-(4-methoxyphenyl)urea]",55.3,> 3.3,29 µM,,
"CC(C)(C)OC(=O)n1ccc2cc(N(Cc3nnc4n3CCCCC4)C(=O)Nc3ccc(F)c(Cl)c3)ccc21 [Example 17, tert-Butyl 5-(3-(3-chloro-4-fluorophenyl)-1-((6,7,8,9-tetrahydro-5H-[1,2,4]triazolo[4,3-a]azepin-3-yl)methyl)ureido)-1H-indole-1-carboxylate]",92.6,> 3.3,13 µM,,
"O=C(Nc1ccc(F)c(Cl)c1)N(Cc1nnc2n1CCCCC2)c1ccc2[nH]ccc2c1 [Example 18, 3-(3-Chloro-4-fluorophenyl)-1-(1H-indol-5-yl)-1-((6,7,8,9-tetrahydro-5H-[1,2,4]triazolo[4,3-a]azepin-3-yl)methyl)urea]",96.8,> 3.3,4.8 µM,,
"N#Cc1cccc(N(Cc2nnc3n2CCCCC3)C(=O)Nc2ccc(F)c(Cl)c2)c1 [Example 19, 3-(3-Chloro-4-fluorophenyl)-1-(3-cyanophenyl)-1-((6,7,8,9-tetrahydro-5H-[1,2,4]triazolo[4,3-a]azepin-3-yl)methyl)urea]",94,> 3.3,,,
"Cc1cccc(NC(=O)N(Cc2nnc3n2CCCCC3)c2ccc3c(c2)OCO3)n1 [Example 20, 1-(Benzo[d][1,3]dioxol-5-yl)-3-(6-methylpyridin-2-yl)-1-((6,7,8,9-tetrahydro-5H-[1,2,4]triazolo[4,3-a]azepin-3-yl)methyl)urea]",3,0.89,,,
"O=C(Nc1ccc(F)c(Cl)c1)N(Cc1nnc2n1CCCCC2)c1cccc(C(F)(F)F)c1 [Example 21, 3-(3-Chloro-4-fluorophenyl)-1-((6,7,8,9-tetrahydro-5H-[1,2,4]triazolo[4,3-a]azepin-3-yl)methyl)-1-(3-(trifluoromethyl)phenyl)urea]",,> 3.3,11 µM,4,
"COc1ccc(N(Cc2nnc(C)n2-c2ccccc2)C(=O)Nc2ccc(F)c(Cl)c2)cc1 [Example 25, 3-(3-Chloro-4-fluorophenyl)-1-(4-methoxyphenyl)-1-((5-methyl-4-phenyl-4H-1,2,4-triazol-3-yl)methyl)urea]",-2,> 3.3,,,
"N#Cc1ccc(N(Cc2nnc3n2CCCCC3)C(=O)Nc2ccc(F)c(Cl)c2)cc1 [Example 28, 3-(3-Chloro-4-fluorophenyl)-1-(4-cyanophenyl)-1-((6,7,8,9-tetrahydro-5H-[1,2,4]triazolo[4,3-a]azepin-3-yl)methyl)urea]",36,0.604,4 µM,,
"COc1ccc(N(Cc2nnc(C(C)C)n2C)C(=O)Nc2ccc(F)c(Cl)c2)cc1 [Example 29, 3-(3-Chloro-4-fluorophenyl)-1-((5-isopropyl-4-methyl-4H-1,2,4-triazol-3-yl)methyl)-1-(4-methoxyphenyl)urea]",1,> 3.3,,,
"O=C(Nc1ccc(F)c(Cl)c1)N(Cc1nnc2n1CCCCCC2)c1ccc2c(c1)OCO2 [Example 30, 1-(Benzo[d][1,3]dioxol-5-yl)-3-(3-chloro-4-fluorophenyl)-1-((5,6,7,8,9,10-hexahydro-[1,2,4]triazolo[4,3-a]azocin-3-yl)methyl)urea]",32,0.74,3.6 µM,,
"COc1ccc(N(Cc2nnc(C3CCCC3)n2C)C(=O)Nc2ccc(F)c(Cl)c2)cc1 [Example 31, 3-(3-Chloro-4-fluorophenyl)-1-((5-cyclopentyl-4-methyl-4H-1,2,4-triazol-3-yl)methyl)-1-(4-methoxyphenyl)urea]",-4,3.48,16 µM,,
"COc1ccc(N(Cc2nnc(C)n2C2CCCC2)C(=O)Nc2ccc(F)c(Cl)c2)cc1 [Example 32, 3-(3-Chloro-4-fluorophenyl)-1-((4-cyclopentyl-5-methyl-4H-1,2,4-triazol-3-yl)methyl)-1-(4-methoxyphenyl)urea]",23,0.32,4.9 µM,,
"CN(C)c1ccc(N(Cc2nnc3n2CCCCC3)C(=O)Nc2ccc(F)c(Cl)c2)cc1 [Example 34, 3-(3-Chloro-4-fluorophenyl)-1-(4-(dimethylamino)phenyl)-1-((6,7,8,9-tetrahydro-5H-[1,2,4]triazolo[4,3-a]azepin-3-yl)methyl)urea]",-7,> 3.3,,,
"Cn1ccc(N(Cc2nnc3n2CCCCC3)C(=O)Nc2ccc(F)c(Cl)c2)n1 [Example 35, 3-(3-Chloro-4-fluorophenyl)-1-(1-methyl-1H-pyrazol-3-yl)-1-((6,7,8,9-tetrahydro-5H-[1,2,4]triazolo[4,3-a]azepin-3-yl)methyl)urea]",63.1,> 3.3,,,
"COc1ccc(N(Cc2nnc(C)n2C2CC2)C(=O)Nc2ccc(F)c(Cl)c2)cc1 [Example 37, 3-(3-Chloro-4-fluorophenyl)-1-((4-cyclopropyl-5-methyl-4H-1,2,4-triazol-3-yl)methyl)-1-(4-methoxyphenyl)urea]",84.1,> 3.3,,,
"COc1ccc(N(Cc2nnc3n2CCN(C(=O)OCc2ccccc2)CC3)C(=O)Nc2ccc(F)c(Cl)c2)cc1 [Example 38, Benzyl 3-((3-(3-chloro-4-fluorophenyl)-1-(4-methoxyphenyl)ureido)methyl)-8,9-dihydro-5H-[1,2,4]triazolo[4,3-d][1,4]diazepine-7(6H)-carboxylate]",-1,> 3.3,,,
"O=C(Nc1ccc(F)c(Cl)c1)N(Cc1nnc2n1CCCCC2)c1ncco1 [Example 39, 3-(3-Chloro-4-fluorophenyl)-1-(oxazol-2-yl)-1-((6,7,8,9-tetrahydro-5H-[1,2,4]triazolo[4,3-a]azepin-3-yl)methyl)urea]",100,> 3.3,5.7 µM,,
"COC(=O)Cc1nnc(CN(C(=O)Nc2ccc(F)c(Cl)c2)c2ccc3c(c2)OCO3)[nH]1 [Example 45, Methyl 2-(5-((1-(benzo[d][1,3]dioxol-5-yl)-3-(3-chloro-4-fluorophenyl)ureido)methyl)-4H-1,2,4-triazol-3-yl)acetate]",6,> 3.3,,,
"O=C(Nc1cc(F)c(F)c(F)c1)c1ccc(F)c(S(=O)(=O)N2CCC(O)CC2)c1 [NVR, reference compound]",,,4.1 µM and 5.2 µM and 4.9 µM and 3.9 µM and 4.8 µM,,0.4
